The test system of one data set is phospho-p38 MAPK. As to the kind of experiment: Thapsigargin-induced p38 MAPK phosphorylation in CSM14.1 cells (immunoblotting and MSD assay). It is filed as cell-based, rat. From the text: After confirming the pathway selectivity of compounds, additional downstream assays can be performed to map the specific signal transduction pathway inhibited by the compounds. In this regard, various antibody reagents are commercially available for assessing the status of the three major pathways known to be activated by ER stress: (1) PERK, (2) Ire1, and (3) ATF6 (Xu et al., J. Clinical Invest., 115:2656-2664, 2005). Immunoblotting experiments can be performed to assess the expression or phosphorylation (using phospho-specific antibodies) of marker proteins in these pathways. […] Cell lysates were prepared and analyzed by SDS-PAGE/immunoblotting using antibodies specific for phospho-c-Jun, phospho-eIF2α, phospho-p38 MAPK, and tubulin (a loading control). […] After two hrs, cell lysates were prepared, normalized for protein content, and either analyzed by SDS-PAGE/immunoblotting using anti-p38-MAPK pan-reactive antibody or phospho-specific antibody with ECL-based detection, followed by densitometry analysis of x-ray films, normalizing phosphor-p38 MAPK relative to total p38 MAPK, or analyzed using a meso-scale instrument from MSD and a procedure in which total p38 MAPK is captured on plates, and the relative amounts of phosphorylated protein were determined using phospho-specific antibody (MSD catalog #K15112D1). […]

The test system of a further data set is SW1 melanoma cell. As to the kind of experiment: Thapsigargin-induced death of SW1 cells, ATP content assay. Format: cell-based, human. The procedure:
In addition to CSM14.1 cells, when tested at 25 μM, Compound 5962123 protected by >50% against thapsigargin-induced death of several tumor cell lines (HeLa human cervical cancer, SW1 melanoma cell, PPC1, human prostate cancer), mouse neural stem cell C17.2 (both differentiated [neuronal phenotype] and non-differentiated [stem cell phenotype]) as determined by ATP content assay, and primary rat cortical neurons as determined by microscopy assay measuring the percentage of NeuN-immunopositive cells with either normal or apoptotic nuclear morphology (Hoechst dye staining).
For PC12, cells were stimulated with 20 ng/ml NGF for five days; for C17.2, cells were stimulated with serum reduction, and 1% N2 incubation for three days; for CSM14.1, cells were cultured at 39° C. for 5-7 days.

Another data set deals with Jnk-1 and Jnk-2. Briefly: c-Jun activation by purified Jnk-1 and Jnk-2, in vitro kinase assay. It is filed as biochemical. The following applies: 50 μM compound. The procedure: C-Jun and p38 MAPK work downstream of the Ire1 pathway (see FIG. 21), we tested whether one of our hit compounds (6239507) inhibits autophosphorylation of any of kinases in this Ire1-ASK1-JNK/p38 MAPK pathway. […] An Ire1 autophosphorylation assay was performed. Immunoprecipitated Ire1 was incubated with DMSO (2%), 50 μM compound 6239507, or the positive control staurosporine (20 μM; STS) for 20 minutes at 30° C. followed by chilling on ice. 0.5 μCi of ^32P-γ-ATP was added to each tube and incubated at 30° C. for the indicated times. Kinase reactions were finished by adding sample buffer. Incorporation values of ^32P-γ-ATP were evaluated by a scintillation counter. An ASK1-MKK6-p38 coupled assay was also performed. Immunoprecipitated ASK1 was mixed with 1 μg MKK6 (Millipore) and 1 μg p38 MAPK (Sigma). Kinases were incubated with 2% DMSO, 50 μM compound 6239507, or 20 μM staurosporine (STS) in one tube for 20 minutes at 30° C. followed by ice chilling. 0.5 μCi of ^32P-γ-ATP was added to each tube and incubated at 30° C. for the indicated times. Kinase reactions were finished by adding sample buffer. Incorporation values of ^32P-γ-ATP were evaluated by a scintillation counter. C-Jun activation by purified Jnk-1 and Jnk-2 (Millipore) was confirmed with the same procedures.

Regarding `CCN(CC)c1ccc(C2Nc3ccccc3NC3=C2C(=O)CC(c2ccccc2)C3)cc1` (stereo not shown) [Compound 5962123, 6-(4-diethylaminophenyl)-9-phenyl-5,6,8,9,10,11-hexahydrobenzo[c][1,5]benzodiazepin-7-one], the “Final DMSO concentration needed in culture media to avoid a visible cloudy precipitate” value was “at least 0.2 % (v/v)”. Further, in the data set with phospho-p38 MAPK (CSM14.1, immunoblotting and MSD assay, 10 μM, 25 μM hits), the “Thapsigargin-induced phosphorylation of p38MAPK” value is “inhibits”. In addition, in the data set on phospho-p38 MAPK (quantitative ELISA-methods, thapsigargin-treated CSM14.1, estimated, read-out: IC50 for p38MAPK phosphorylation), the IC50 was less than 5 µM. Further, in the data set with SW1 melanoma cell (25 μM, ATP content assay), the “Protection against thapsigargin-induced death, SW1” value is given as more than 50%. In addition, in the data set on SW1 melanoma cell (ATP content assay), the “Cytoprotective activity in thapsigargin-treated SW1” value is reported as “demonstrated”. Moreover, the “Cytoprotective activity, SW1 (Result)” value with SW1 melanoma cell (thapsigargin 15 μM, ATP content, compound ≦25 μM) is reported as “+ (+indicates >50% rescue of cell viability relative to untreated cells not exposed to thapsigargin at compound concentration of ≦25 μM)”.
As for `COc1ccc(C2CC(=O)C3=C(C2)Nc2ccccc2NC3c2cccc(Oc3ccccc3)c2)cc1OC` (stereo not shown) [Compound 6239507], the “JNK's activity on c-Jun” value with Jnk-1 and Jnk-2 is “does not modulate”.

The values are drawn from US20080293699A1, “Inhibitors of thapsigargin-induced cell death” (priority 2007, published 2008).
